Values joined by “and” are separate entries in the source; they are usually repeats but may differ in a detail not shown here. Equal entries are not always repeated. Non-standard residues stand in square brackets, D forms with d. Residues, ends and D or L forms follow the SMILES beside them. Nva = CCC[C@H](N)C(=O)O
How the values were obtained:
Format in all cases: in vivo, mouse
[1] = tested on: HFD induced NASH mice; test: HFD induced NASH (NAFLD) mice: weight gain, liver appearance; conditions: JT003 500 μg kg−1 i.p. daily 4 weeks, vs HFD, in words
Method: Male C57BL/6J mice of 6–8 weeks of age (20–24 g) were used in these experiments including the NAFLD model and liver fibrosis model. The mice were purchased from Guangdong Medical Laboratory Animal Center and housed in standard isolator cages and maintained on a room temperature of 25 °C and a 12 h:12 h light/dark cycle. At the end of the experiments, mice were fasted 8 h prior to sacrifice. Liver tissue and/or epididymal adipose tissue were flash frozen in liquid nitrogen (with or without RNAlater (TransGen Biotech, China)) and stored at −80 °C for future use, or fixed in 10% paraformaldehyde for histological assays. Blood samples were obtained from the posterior venous plexus of the eyes of anesthetized mice, Blood was separated by centrifugation at 1000g for 15 min Serum was then stored at −80 °C. The ethical approval has been obtained from Animal Care and Use Committee of the Sun Yat-sen University. All animals were maintained in pathogen-free conditions and cared for in accordance with policies and certification of the Association for Assessment and Accreditation of Laboratory Animal Care International (AAALAC International).
The NASH model was conducted with feeding a HFD for 16 weeks combine with a MCD diet (Methionine/Choline Deficient Diet, Medicience, China) in the last 4 weeks. […]

[2] = tested on: CCl4 induced liver fibrosis mice; test: CCl4 induced liver fibrosis mice: liver appearance, body weight, HE, Sirius red, IHC (αSMA, COL1α1, CD68); conditions: in words
Method: (§1) Male mice liver fibrosis was induced by intraperitoneal injection of 20% CCl4 (Sigma, USA) diluted in corn oil (Aladdin, China) every 3 days for 6 weeks (n = 6; 5 ml kg^−1 body weight). Mice injected with equivalent volume of corn oil serves as control group (n = 6). Liver fibrosis mice treated with JT003 for 3 weeks were used to evaluated the pharmacological effects (n = 6; 500 μg kg^−1; daily intraperitoneal injection).
The levels of TG and HYP in liver tissue were detected with certain commercial assay kit (Nanjing Jiancheng Bioengineering Institute, China). Formalin-fixed liver tissues were embedded in paraffin, sectioned into 5 μm slices. After deparaffinization and rehydration of the section slices, they were stained with Haematoxylin and Eosin or Periodic Acid-Schiff. For the detection of liver collagen content, Sirius Red staining for collagen was performed. OCT-embedded frozen liver tissues were sectioned into 12 μm slices, and Oil Red O staining was performed. The cryostat-cut slices were stained with freshly prepared Oil Red O working solution for 7 min Two independent experimenters who were blinded to the treatment evaluated the staining slides and analyzed the score for steatosis, glucogen accumulation and collagen proliferation area.
Paraffin-embedded liver slices were deparaffinized and rehydrated, antigen retrieval was performed under the high pressure and temperature in 0.01 M sodium citrate buffer (pH = 6.0). To quench the endogenous peroxidase activity, the slices were then incubated with 1% hydrogen peroxide in methanol for 10 min in room temperature. Then slices were incubated with corresponding primary antibodies. After washing, HRP-conjugated secondary antibodies specific to the species of the primary antibodies were used. After the section were developed with DAB, hematoxylin staining was performed for cell counting.

[3] = tested on: liver gene expression of CCl4 induced liver fibrosis mice; test: CCl4 mice: liver mRNA, quantitative RT-PCR; set-up: key to BAX liver mRNA / BID liver mRNA / UCP2 liver mRNA / DGAT1 liver mRNA / GSTM1 liver mRNA / GPX1 liver mRNA / HO-1 liver mRNA / XBP1 liver mRNA / ATF4 liver mRNA / GRP78 liver mRNA / BIM liver mRNA: mRNA expression normalized to β-actin reference gene; conditions: for BCL2 liver mRNA, relative expression (Apotosis), Supplementary Figure 16 / FAS liver mRNA, relative expression (Apotosis), Supplementary Figure 16: CCl4 + JT003 mice
Method: as §1
Liver total RNA was extracted by using Trizol reagent following the manufacture’s instruction (TransGen Biotech, China). The concentration of RNA was measured by Nanodrop 2000 (ThermoFisher Scientific, USA). cDNA was transcribed from 10ug total RNA with First Strand cDNA synthesis Super Mix (TransGen Biotech, China). The cDNA was diluted 1/50 and 1.0 uL were used as a template for qPCR. qPCR was performed with SYBR Green qPCR Super Mix (TransGen Biotech, China) in the Light Cycler 480 Real-Time PCR System (Roche, Swiss). Reference gene β-actin was used for data normalization. mRNA expression was analyzed with specific primers listed in Supplementary Table 2.

[4] = CCl4 fibrosis mice, liver, JT003 500 μg kg−1, in words
[5] = CCl4 mice, liver, JT003 500 μg kg−1, in words
[6] = Figure 7d left, CCl4 + JT003 group, single replicates, n = 6
[7] = Figure 7d right, CCl4 + JT003 group, single replicates, n = 6

SMILES: CCC[C@H](NC(=O)[C@@H]1CCCN1)C(=O)N[C@@H](CC(C)C)C(=O)N[C@@H](Cc1ccc(O)cc1)C(=O)N[C@@H](Cc1ccc(O)cc1)C(=O)N[C@@H](Cc1ccccc1)C(=O)N[C@@H](C)C(N)=O [JT003] (H-P[Nva]LYYFA-NH2)
- weight gain [1]: significantly reduced the weight gain
- inflammation, necrosis and fibrosis area (HE and sirius red staining) ([2]; CCl4 induced liver fibrosis mice, administration dosages of 0.5 mg kg−1 and 2 mg kg−1): significantly decreased
- liver adhesion (dissected assays) ([2]; CCl4 induced liver fibrosis mice): reduced
- IHC staining of CD68 (macrophage infiltration) ([2]; CCl4 mice, JT003 500 μg kg−1): markedly reduced the inflammation
- immunohistochemical staining for αSMA and COL1α1 ([2]; CCl4 mice, JT003 500 μg kg−1): confirmed the improvement of liver fibrosis
- BCL2 liver mRNA, relative expression (Apotosis), Supplementary Figure 16 ([3]; replicate 1): 19.1929
- FAS liver mRNA, relative expression (Apotosis), Supplementary Figure 16 ([3]; replicate 1): 0.7337
- BCL2 liver mRNA, relative expression (Apotosis), Supplementary Figure 16 ([3]; replicate 2): 9.563
- FAS liver mRNA, relative expression (Apotosis), Supplementary Figure 16 ([3]; replicate 2): 0.7492
- BCL2 liver mRNA, relative expression (Apotosis), Supplementary Figure 16 ([3]; replicate 3): 15.2158
- FAS liver mRNA, relative expression (Apotosis), Supplementary Figure 16 ([3]; replicate 3): 0.6522
- BCL2 liver mRNA, relative expression (Apotosis), Supplementary Figure 16 ([3]; replicate 4): 10.7592
- FAS liver mRNA, relative expression (Apotosis), Supplementary Figure 16 ([3]; replicate 4): 0.5898
- TGFβ, CTGF, IL-6, TNFα and IL-1β (HSCs activation) [3, 4]: all suppressed
- expression of genes related to ECM accumulation (TIMP1, MMP3 and MMP8) [3, 4]: decreased
- genes involved in ECM elimination (MMP2, MMP9 and MMP13) [3, 4]: notably upregulated
- ER-Stress related genes (XBP1, ATF4, GRP78 and BIM) ([3]; CCl4 induced fibrosis mice, liver, JT003 500 μg kg−1, in words): remarkably suppressed
- anti-apoptotic BCL2 (RT-PCR) [3, 5]: significantly improved
- apoptosis-related FAS (RT-PCR) [3, 5]: reduced
- ATF4 liver mRNA [3, 6]: 1.16 and 0.7959 and 1.086 (2×) and 0.9357 and 1.157
- BIM liver mRNA [3, 6]: 0.2472 and 0.8351 and 0.6258 and 0.6305 and 0.5305 and 0.5258
- GRP78 liver mRNA [3, 6]: 0.8253 and 1.201 and 1.072 (2×) and 0.9986 and 0.797
- XBP1 liver mRNA [3, 6]: 2.911 and 0.8961 and 1.2156 (2×) and 1.656 and 1.136
- DGAT1 liver mRNA ([3]; Figure 7d right, CCl4 + JT003 group, single replicates, 5 values): 0.8433 and 1.099 and 1.191 and 0.9141 and 2.738
- BAX liver mRNA [3, 7]: 1.955 and 0.8137 and 1.744 and 0.6724 and 1.0479 and 1.373
- BID liver mRNA [3, 7]: 1.296 and 0.8034 and 0.6436 and 0.8394 and 0.9828 and 0.9284
- GPX1 liver mRNA [3, 7]: 0.4793 and 0.5322 and 0.6634 and 0.7144 and 0.5138 and 0.7293
- GSTM1 liver mRNA [3, 7]: 0.3771 and 0.1875 and 0.195 and 1.014 and 0.3719 and 0.9044
- HO-1 liver mRNA [3, 7]: 1.179 and 1.19 and 1.314 and 1.134 and 1.372 and 1.274
- PGC1a liver mRNA [3, 7]: 1.328 and 1.046 and 1.167 and 1.184 and 1.337 and 1.083
- PGC1b liver mRNA [3, 7]: 1.159 and 2.677 and 4.191 and 3.928 and 2.638 and 2.374
- UCP2 liver mRNA [3, 7]: 0.9325 and 1.681 and 1.172 and 0.7627 and 0.8293 and 0.6383
